Assay results from patent publication US10023593B2, “ALK kinase inhibitor, and preparation method and uses thereof” (BEIJING PEARL BIOTECHNOLOGY LIMITED LIABILITY COMPANY, priority 2014, dated 2018).

Assays:
L1196M mutant ALK kinase = molecular target: T1, L1196M mutant ALK kinase (Homo sapiens, UniProt Q9UM73, L1196M); assay: HTRF KinEASE-TK assay, inhibitory activity on L1196M mutant ALK kinase; type: biochemical; details: L1196M mutant ALK 1 ng/μl, substrate 1 μM, ATP 5 μM, 30° C. 35 minutes, read-out: Inhibition on ALK kinases (L1196M mutant), IC50
T1 construct: purchased Sino-US Crown Bioscience, Inc. batch number ALKm_20110923
T1 sequence (Q9UM73 19-1620 L1196M): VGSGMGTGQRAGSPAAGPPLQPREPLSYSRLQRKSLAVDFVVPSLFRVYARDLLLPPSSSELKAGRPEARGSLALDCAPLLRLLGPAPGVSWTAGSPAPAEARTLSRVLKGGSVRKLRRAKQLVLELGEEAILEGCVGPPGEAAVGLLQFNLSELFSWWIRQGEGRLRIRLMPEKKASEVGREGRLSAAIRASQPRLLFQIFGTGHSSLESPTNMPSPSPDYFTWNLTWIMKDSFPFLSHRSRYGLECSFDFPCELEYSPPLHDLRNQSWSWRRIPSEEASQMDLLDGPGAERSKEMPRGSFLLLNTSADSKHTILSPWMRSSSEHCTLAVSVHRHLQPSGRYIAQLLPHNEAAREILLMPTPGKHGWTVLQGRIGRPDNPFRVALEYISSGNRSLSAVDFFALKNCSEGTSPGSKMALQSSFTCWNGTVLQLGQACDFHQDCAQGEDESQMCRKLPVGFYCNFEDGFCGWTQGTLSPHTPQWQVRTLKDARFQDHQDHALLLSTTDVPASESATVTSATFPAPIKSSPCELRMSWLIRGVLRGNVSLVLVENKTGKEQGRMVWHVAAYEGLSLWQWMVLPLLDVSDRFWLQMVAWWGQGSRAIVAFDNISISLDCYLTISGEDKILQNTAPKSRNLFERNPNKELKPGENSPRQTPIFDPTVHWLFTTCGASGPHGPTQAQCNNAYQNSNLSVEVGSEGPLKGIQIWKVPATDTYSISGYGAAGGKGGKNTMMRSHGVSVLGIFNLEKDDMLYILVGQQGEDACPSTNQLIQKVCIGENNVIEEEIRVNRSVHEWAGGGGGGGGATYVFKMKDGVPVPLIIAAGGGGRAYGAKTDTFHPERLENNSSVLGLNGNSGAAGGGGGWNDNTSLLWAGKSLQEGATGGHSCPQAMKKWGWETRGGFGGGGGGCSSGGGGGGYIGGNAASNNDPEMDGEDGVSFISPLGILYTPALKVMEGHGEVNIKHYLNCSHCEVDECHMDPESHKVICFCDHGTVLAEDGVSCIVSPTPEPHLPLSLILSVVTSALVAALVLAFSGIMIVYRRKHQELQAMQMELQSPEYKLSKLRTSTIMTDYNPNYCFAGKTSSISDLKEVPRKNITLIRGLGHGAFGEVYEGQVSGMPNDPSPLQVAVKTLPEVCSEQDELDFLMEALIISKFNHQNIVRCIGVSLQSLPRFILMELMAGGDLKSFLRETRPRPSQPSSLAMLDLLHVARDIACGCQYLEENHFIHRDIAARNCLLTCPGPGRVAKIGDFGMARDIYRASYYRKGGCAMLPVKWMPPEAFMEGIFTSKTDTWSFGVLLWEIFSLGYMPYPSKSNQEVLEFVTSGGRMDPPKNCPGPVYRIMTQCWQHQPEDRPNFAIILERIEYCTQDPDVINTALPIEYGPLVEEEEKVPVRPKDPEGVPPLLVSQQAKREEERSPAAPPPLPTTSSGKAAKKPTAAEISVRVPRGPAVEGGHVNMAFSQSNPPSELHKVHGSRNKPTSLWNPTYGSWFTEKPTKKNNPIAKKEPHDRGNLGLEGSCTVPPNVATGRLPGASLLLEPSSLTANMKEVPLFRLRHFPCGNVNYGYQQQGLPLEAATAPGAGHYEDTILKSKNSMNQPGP
Summary of the method: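 HTRF TK assay: mutant kinase 1 ng/μl, substrate 1 μM, ATP 5 μM, 5 mM MgCl2, 1 mM DTT, 1% DMSO, 35 min at 30 °C. 665/615 ratio read; inhibition normalised to no-compound and 10.4 μM LDK-378 controls; IC50 from curve fit.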

NCI-H2228 cell line = assay: CellTiter-Glo cell proliferation inhibition on NCI-H2228 cell line; type: cell-based; details: Homo sapiens, NCI-H2228, 96 h, NCI-H2228 cells, 5000 cells/well, 4 days drug treatment
Summary of the method: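 NCI-H2228 cells, 5000/well in RPMI-1640 + 10% FBS, treated with compounds 2 h after seeding (0.5% DMSO final) for 4 days at 37° C. Viability by CellTiter-Glo luminescence; inhibition relative to DMSO control, IC50 from curve fit.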

cytochrome P450 2C19 = cytochrome P450 2C19 (Homo sapiens, UniProt P33261); assay: Inhibitory activity on cytochrome P450 2C19; type: in vitro ADME; details: no significant inhibition
Chain of cytochrome P450 2C19 (P33261 whole entry): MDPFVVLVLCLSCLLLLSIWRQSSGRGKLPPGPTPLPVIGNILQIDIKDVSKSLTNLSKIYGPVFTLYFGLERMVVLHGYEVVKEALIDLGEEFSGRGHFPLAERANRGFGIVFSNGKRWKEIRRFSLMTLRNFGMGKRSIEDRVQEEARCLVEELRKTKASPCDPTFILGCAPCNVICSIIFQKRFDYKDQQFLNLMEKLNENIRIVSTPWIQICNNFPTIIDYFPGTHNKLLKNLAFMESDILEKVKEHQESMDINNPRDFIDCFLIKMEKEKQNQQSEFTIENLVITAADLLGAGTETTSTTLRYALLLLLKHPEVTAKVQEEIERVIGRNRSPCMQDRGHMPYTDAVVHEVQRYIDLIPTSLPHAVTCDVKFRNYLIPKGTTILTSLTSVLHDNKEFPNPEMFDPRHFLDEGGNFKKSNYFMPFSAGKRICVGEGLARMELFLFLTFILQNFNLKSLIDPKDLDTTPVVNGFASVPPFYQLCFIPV

cytochrome P450 2D6 = cytochrome P450 2D6 (Homo sapiens, UniProt P10635); assay: Inhibitory activity on cytochrome P450 2D6; type: in vitro ADME; details: no significant inhibition
Chain of cytochrome P450 2D6 (P10635 whole entry): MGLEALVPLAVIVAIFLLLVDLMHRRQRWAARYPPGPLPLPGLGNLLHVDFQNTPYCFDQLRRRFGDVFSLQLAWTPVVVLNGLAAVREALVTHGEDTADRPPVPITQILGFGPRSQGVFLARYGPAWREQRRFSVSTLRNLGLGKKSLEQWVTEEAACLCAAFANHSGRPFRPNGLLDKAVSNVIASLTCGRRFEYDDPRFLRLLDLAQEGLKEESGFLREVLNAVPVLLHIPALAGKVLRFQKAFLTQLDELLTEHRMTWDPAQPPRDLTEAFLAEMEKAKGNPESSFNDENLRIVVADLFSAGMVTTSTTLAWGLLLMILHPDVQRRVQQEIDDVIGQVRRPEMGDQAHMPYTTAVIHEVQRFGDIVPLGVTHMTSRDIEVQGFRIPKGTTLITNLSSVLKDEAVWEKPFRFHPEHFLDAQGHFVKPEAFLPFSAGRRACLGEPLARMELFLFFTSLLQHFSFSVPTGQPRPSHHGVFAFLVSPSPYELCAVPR

cytochrome P450 3A4 = cytochrome P450 3A4 (Homo sapiens, UniProt P08684); assay: Inhibitory activity on cytochrome P450 3A4; type: in vitro ADME; details: no significant inhibition
Chain of cytochrome P450 3A4 (P08684 whole entry): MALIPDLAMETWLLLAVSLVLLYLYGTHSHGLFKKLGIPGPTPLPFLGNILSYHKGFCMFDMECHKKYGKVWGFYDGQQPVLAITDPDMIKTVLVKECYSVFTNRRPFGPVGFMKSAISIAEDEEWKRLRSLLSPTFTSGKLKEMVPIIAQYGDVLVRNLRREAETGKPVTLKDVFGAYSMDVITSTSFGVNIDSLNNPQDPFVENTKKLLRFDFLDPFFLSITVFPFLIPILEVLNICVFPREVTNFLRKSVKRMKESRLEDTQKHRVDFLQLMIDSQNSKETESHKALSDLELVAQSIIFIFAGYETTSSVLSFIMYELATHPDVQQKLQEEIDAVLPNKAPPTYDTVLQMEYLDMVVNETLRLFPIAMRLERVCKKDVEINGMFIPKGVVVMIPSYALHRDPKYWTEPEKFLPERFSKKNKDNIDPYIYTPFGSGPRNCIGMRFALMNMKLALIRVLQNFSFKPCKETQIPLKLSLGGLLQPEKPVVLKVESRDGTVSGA

Structure (SMILES)	IC50 (L1196M mutant ALK kinase) [nM]	IC50 (NCI-H2228 cell line) [nM]	IC50 (cytochrome P450 2C19) [nM]	IC50 (cytochrome P450 2D6) [nM]	IC50 (cytochrome P450 3A4) [nM]
Cc1cc(Nc2ncc(Cl)c(Nc3cn(C)nc3S(=O)(=O)C(C)C)n2)c(OC2CC2)cc1C1CCN(C)CC1(F)F (stereo not shown) [Final product 88]	15	72	–	–	–
Cc1cc(Nc2ncc(Cl)c(Nc3cn(C)nc3S(=O)(=O)C(C)C)n2)c(OC(C)C)cc1C1CCNCC1 [Final product 2]	16	198	–	–	–
Cc1cc(Nc2ncc(Cl)c(Nc3cn(C)nc3S(=O)(=O)C(C)C)n2)c(OC2CC2)cc1C1CCN(C)CC1C (stereo not shown) [Final product 90]	4	45	–	–	–
COCC1CC(c2cc(OC3CC3)c(Nc3ncc(Cl)c(Nc4cn(C)nc4S(=O)(=O)C(C)C)n3)cc2C)CCN1C (stereo not shown) [Final product 77]	4	25	> 10000	> 10000	> 10000
Cc1cc(Nc2ncc(Cl)c(Nc3cn(C)nc3S(=O)(=O)C(C)C)n2)c(OC2CC2)cc1C1CCN(C)CC1F (stereo not shown) [Final product 87]	10	113	–	–	–
Cc1cc(Nc2ncc(Cl)c(Nc3cn(C)nc3S(=O)(=O)CC(C)C)n2)c(OC2CC2)cc1C1CCN(C)CC1 [Final product 57]	11	108	> 10000	> 10000	> 10000
Cc1cc(Nc2ncc(Cl)c(Nc3cn(C4CC4)nc3S(=O)(=O)C(C)C)n2)c(OC(C)C)cc1C1CCN(C)CC1 [Final product 81]	25	190	–	–	–
COC1CN(C)CCC1c1cc(OC2CC2)c(Nc2ncc(Cl)c(Nc3cn(C)nc3S(=O)(=O)C(C)C)n2)cc1C (stereo not shown) [Final product 58]	6	55	–	–	–
CC(C)Oc1cc(C2CCNCC2)ccc1Nc1ncc(Cl)c(Nc2cn(C)nc2S(=O)(=O)C(C)C)n1 [Final product 1, 5-chloro-N^2-[2-isopropoxy-4-(piperidin-4-yl)phenyl]-N^4-(3-isopropylsulfonyl-1-methyl-1H-pyrazol-4-yl)pyrimidin-2,4-diamine]	8	184	–	–	–
Cc1cc(Nc2ncc(Cl)c(Nc3cn(C)nc3S(=O)(=O)C(C)C)n2)c(OC2CC2)cc1C1CCN(C)C1 (stereo not shown) [Final product 53]	4	133	–	–	–
Cc1cc(Nc2ncc(Cl)c(Nc3cn(C)nc3S(=O)(=O)CC(C)C)n2)c(OC2CC2)cc1C1CN(C)C1 [Final product 55]	8	181	–	–	–
Cc1cc(Nc2ncc(Cl)c(Nc3cn(C)nc3S(=O)(=O)C(C)C)n2)c(OC2CC2)cc1C1CCC(NS(C)(=O)=O)CC1 (stereo not shown) [Final product 205, N-(4-(4-(5-chloro-4-(3-(isopropylsulfonyl)-1-methyl-1H-pyrazol-4-amine)pyrimidin-2-amine)-5-cyclopropoxy-2-methylphenyl)cyclohexyl)methanesulfonamide]	20	151	> 10000	> 10000	> 10000
Cc1cc(Nc2ncc(Cl)c(Nc3cn(C)nc3S(=O)(=O)C(C)C)n2)c(OC2CC2)cc1C1CN(C)C1 [Final product 54]	5	18	–	–	–
Cc1cc(Nc2ncc(Cl)c(Nc3cn(C4CC4)nc3S(=O)(=O)C(C)C)n2)c(OC2CC2)cc1C1CCN(C)CC1 [Final product 56]	11	142	–	–	–
Cc1cc(Nc2ncc(Cl)c(Nc3cn(C)nc3S(=O)(=O)C(C)C)n2)c(OC(C)C)cc1C1CCNC1 (stereo not shown) [Final product 3]	5	364	–	–	–
COCC1CC(c2cc(OC3CC3)c(Nc3ncc(Cl)c(Nc4cn(C)nc4S(=O)(=O)CC(C)C)n3)cc2C)CCN1C (stereo not shown) [Final product 79]	8	62	–	–	–
COCCN1CCC(c2cc(OC3CC3)c(Nc3ncc(Cl)c(Nc4cn(C)nc4S(=O)(=O)C(C)C)n3)cc2C)CC1 [Final product 82]	7	43	> 10000	> 10000	> 10000
